Numbered stars: 1 amine (or outer) side, 2 acyl side, 3 side chain; on linkers, the order of the positions; unused ones are H or OH. Square brackets hold non-standard residues; d marks the D form. Peptide text beside a SMILES is read from it. Sta = CC(C)C[C@H](N)[C@@H](O)CC(=O)O; X1 = CCC(O)[C@H](N[*:1])C(=O)[*:2]; Orn = NCCC[C@H](N)C(=O)O
Key:
Beta-secretase 1 [1] = biological target: T1, Beta-secretase 1 (Homo sapiens, UniProt P56817); assay: Compound was tested for its inhibitory activity against human beta-Secretase (BACE)
T1 sequence (P56817 whole entry): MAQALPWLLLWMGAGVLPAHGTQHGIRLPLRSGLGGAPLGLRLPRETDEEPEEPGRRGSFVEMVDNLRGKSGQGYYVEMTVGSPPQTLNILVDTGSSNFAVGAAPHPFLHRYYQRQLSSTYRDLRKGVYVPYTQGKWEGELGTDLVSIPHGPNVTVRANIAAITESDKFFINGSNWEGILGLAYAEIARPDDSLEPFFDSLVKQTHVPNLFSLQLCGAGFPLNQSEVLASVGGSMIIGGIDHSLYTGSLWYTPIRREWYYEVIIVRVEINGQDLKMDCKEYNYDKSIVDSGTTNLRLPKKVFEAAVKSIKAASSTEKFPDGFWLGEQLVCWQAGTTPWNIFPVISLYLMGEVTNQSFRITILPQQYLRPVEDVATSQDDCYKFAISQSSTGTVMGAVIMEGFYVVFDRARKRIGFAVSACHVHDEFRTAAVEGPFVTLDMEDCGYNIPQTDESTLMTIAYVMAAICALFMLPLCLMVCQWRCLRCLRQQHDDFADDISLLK

Beta-secretase 1 [2] = biological target: T1, Beta-secretase 1; assay: Compound was tested for its effective concentration against human beta-Secretase (BACE)

IC50 (Beta-secretase 1 [1]) [nM]	EC50 (Beta-secretase 1 [2]) [nM]	SMILES
20	10000	CC(C)[C@H](NC(=O)C[C@H](O)[C@H](Cc1cc(F)cc(F)c1)NC(=O)C(O)c1ccccc1-c1ccccc1)C(=O)Nc1cc(C(=O)O)cc(C(=O)O)c1 (stereo partly specified)
120	4000	COC(=O)c1cc(NC(=O)[C@@H](NC(=O)C[C@H](O)[C@H](Cc2cc(F)cc(F)c2)NC(=O)C(O)c2ccccc2-c2ccccc2)C(C)C)cc(C(=O)OC)c1 (stereo partly specified)
2	–	CSCC[C@H](NC(=O)[C@@H](NC(=O)OC(C)(C)C)C(C)C)C(=O)N[C@@H](CC(C)C)[C@@H](O)C[C@@H](C)C(=O)N[C@H](C(=O)NCc1ccccc1)C(C)C
30	–	CCC(O)[C@H](NC(=O)[C@@H](N)CCCN)C(=O)N[C@@H](CCC(=O)O)C(=O)N[C@@H](CCC(=O)O)C(=O)N[C@H](C(=O)N[C@@H](CO)C(=O)N[C@@H](CCC(=O)O)C(=O)N[C@H](C(=O)N[C@@H](CCSC)C(=O)N[C@@H](CC(C)C)[C@@H](O)CC(=O)N[C@H](C(=O)N[C@@H](C)C(=O)N[C@@H](CCC(=O)O)C(=O)N[C@@H](Cc1ccccc1)C(=O)O)C(C)C)C(C)C)[C@@H](C)CC (stereo partly specified) (H-[Orn][X1]EEISEVM[Sta]VAEF-OH)

Reference: ChEMBL document CHEMBL1144938, “Human beta-secretase (BACE) and BACE inhibitors” (J Med Chem, 2003)
